# Experiments:
# Assay type in all cases: in vivo
# [1] = system: female Albino Wistar rats; assay: glucose tolerance test; conditions: 25, 50, 75 mg/kg body wt daily for four months; 6 h fast, 2 g/kg intraperitoneally, tail vein blood 0-120 min; p<0.01 ResArgin, p<0.05 resveratrol
# Description: (§1) To determine the efficacy of resveratrol-arginine conjugate, six month old female Albino Wistar rats were divided into seven groups (six rats per group) and given the following daily treatment for four months: • Group 1: Control; • Group 2: 25 mg ResArgin/kg body wt; • Group 3: 50 mg ResArgin/kg body wt; • Group 4: 75 mg ResArgin/kg body wt; • Group 5: 25 mg Resveratrol/kg body wt; • Group 6: 50 mg Resveratrol/kg body wt;
# Group 7: 75 mg Resveratrol/kg body wt. In one embodiment, glucose tolerance levels were tested via a glucose tolerance test and analysis was performed. Compared to the Control group, glucose tolerance was improved in the ResArgin and resveratrol groups (p<0.01 and p<0.05 respectively) over the experimental period.
# In one embodiment, glucose tolerance tests were performed after having the rats fast for 6 hours and injecting 2 g/kg body weight intraperitoneally. Blood was then collected from the tail vein at 0, 15, 30, 60 and 120 minutes after injection.
# [2] = system: female Albino Wistar rats; assay: hair regrowth assay; conditions: 25, 50, 75 mg/kg body wt daily for four months; dorsal hair plucked 1.5 cm x 1.5 cm, scored two weeks later from digital photographs
# Description: as §1
# In another embodiment, hair regrowth assay was done and quantified. Compared to the Control group, hair regrowth was improved in the ResArgin and resveratrol groups over the experimental period.
# In the hair regrowth assay, dorsal hair was removed by plucking from a square of approximately 1.5 cm×1.5 cm. Hair growth and re-growth was scored two weeks later on the basis of digital photographs.
# [3] = system: female Albino Wistar rats; assay: four month daily treatment study, investigated age related conditions overall; conditions: summary of the study; effects of ResArgin being more significant than those of resveratrol
# Description: as §1
# Based on the results of the study performed, the effective dosage of resveratrol arginine conjugate is 10 to 250 mg per kilogram of body weight for a period of at least two weeks.
smiles,measurement,setting,value
Oc1ccc(C=Cc2cc(O)cc(O)c2)cc1 [resveratrol],glucose tolerance compared to the Control group,[1],improved
same,hair regrowth compared to the Control group,[2],improved
same,effect on the investigated age related conditions,[3],significantly improved
